The values that follow come from patent publication US12570659B2, “Bicyclic heteroaryl compounds useful as IRAK4 inhibitors” (BRISTOL-MYERS SQUIBB COMPANY, priority 2019, dated 2026).

The target of experiment [1] is JAK3 kinase (Homo sapiens (Human), UniProt P52333). Put plainly: JAK3 Homogeneous Time Resolved Fluorescence (HTRF) Assay. Format: binding. The following applies: for IC50: competition binding with fluorescein-labeled ATP competitive probe; for Ratio of JAK3 IC50 to IRAK4 IC50: selectivity for IRAK4 over JAK3. An outline of the steps: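 IC50 reflects displacement of a fluorescein-labeled ATP-site probe (at its Kd) from 1 nM tagged JAK3, detected via 0.2 nM Tb anti-His or anti-GST antibody. One-hour incubation; 495 and 520 nm emission ratios, background-subtracted, normalized to maximum signal; 11-point percent inhibition, 4-parameter logistic.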
For orientation: TR-FRET usually uses a lanthanide donor and a delayed reading to cut background.

In experiment [2] the target is IRAK4 (Homo sapiens (Human), UniProt Q9NWZ3). Put plainly: IRAK4 Inhibition Assay. The class given is biochemical. The following applies: ATP 500 μM; IRAK4 0.6 nM; 60 min room temperature. An outline of the steps:
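Phosphorylated and unphosphorylated fluorescent substrate were resolved by microfluidic electrophoresis after termination with 35 mM EDTA. The room-temperature kinase reaction lasted 60 min after IRAK4, substrates and test compound were combined; vehicle-only defined 0% and no-enzyme 100% inhibition.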

Experiment [3] has as its system TLR2 agonist-stimulated IL-6 in human whole blood. Put plainly: IRAK4 Whole Blood Assay. The class given is cell-based. The following applies: lipoteichoic acid 10 μg/mL, 5 hours, IL-6 levels. An outline of the steps:
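ACD-A anticoagulated human whole blood preincubated with compound 60 min at 37 °C, 5% CO2, then stimulated 5 h with lipoteichoic acid at 10 μg/mL final. IL-6 in supernatants measured by flow cytometry bead assay.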

Sequence of JAK3 kinase (P52333 whole entry): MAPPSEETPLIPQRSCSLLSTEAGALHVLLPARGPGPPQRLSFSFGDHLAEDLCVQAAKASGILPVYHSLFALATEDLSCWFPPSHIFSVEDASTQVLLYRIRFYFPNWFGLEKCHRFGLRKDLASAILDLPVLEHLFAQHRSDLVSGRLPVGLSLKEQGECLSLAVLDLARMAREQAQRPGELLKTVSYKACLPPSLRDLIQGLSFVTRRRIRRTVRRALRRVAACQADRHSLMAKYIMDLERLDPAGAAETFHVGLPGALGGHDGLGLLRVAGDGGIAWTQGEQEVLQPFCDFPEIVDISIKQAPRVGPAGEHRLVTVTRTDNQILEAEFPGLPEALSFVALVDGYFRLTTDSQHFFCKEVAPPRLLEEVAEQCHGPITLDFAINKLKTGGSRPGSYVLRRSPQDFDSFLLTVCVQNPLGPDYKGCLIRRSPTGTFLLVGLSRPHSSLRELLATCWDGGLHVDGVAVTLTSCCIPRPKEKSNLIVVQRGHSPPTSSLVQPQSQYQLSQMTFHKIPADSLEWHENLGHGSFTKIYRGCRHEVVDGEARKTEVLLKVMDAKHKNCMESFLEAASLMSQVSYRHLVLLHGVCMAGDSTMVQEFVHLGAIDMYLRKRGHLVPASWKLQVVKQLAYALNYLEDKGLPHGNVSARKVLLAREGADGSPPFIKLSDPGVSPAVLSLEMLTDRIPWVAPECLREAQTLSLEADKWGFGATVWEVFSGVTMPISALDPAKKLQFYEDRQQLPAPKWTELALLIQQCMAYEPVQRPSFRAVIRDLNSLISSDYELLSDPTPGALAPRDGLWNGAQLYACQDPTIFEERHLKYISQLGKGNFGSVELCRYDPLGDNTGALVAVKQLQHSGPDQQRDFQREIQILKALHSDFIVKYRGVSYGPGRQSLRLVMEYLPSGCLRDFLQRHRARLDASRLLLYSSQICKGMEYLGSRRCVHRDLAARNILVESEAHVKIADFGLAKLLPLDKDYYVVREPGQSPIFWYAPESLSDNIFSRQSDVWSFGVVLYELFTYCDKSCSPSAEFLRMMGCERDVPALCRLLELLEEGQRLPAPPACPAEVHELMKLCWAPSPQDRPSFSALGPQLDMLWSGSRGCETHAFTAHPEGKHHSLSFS
Sequence of IRAK4 (Q9NWZ3 whole entry, species assumed): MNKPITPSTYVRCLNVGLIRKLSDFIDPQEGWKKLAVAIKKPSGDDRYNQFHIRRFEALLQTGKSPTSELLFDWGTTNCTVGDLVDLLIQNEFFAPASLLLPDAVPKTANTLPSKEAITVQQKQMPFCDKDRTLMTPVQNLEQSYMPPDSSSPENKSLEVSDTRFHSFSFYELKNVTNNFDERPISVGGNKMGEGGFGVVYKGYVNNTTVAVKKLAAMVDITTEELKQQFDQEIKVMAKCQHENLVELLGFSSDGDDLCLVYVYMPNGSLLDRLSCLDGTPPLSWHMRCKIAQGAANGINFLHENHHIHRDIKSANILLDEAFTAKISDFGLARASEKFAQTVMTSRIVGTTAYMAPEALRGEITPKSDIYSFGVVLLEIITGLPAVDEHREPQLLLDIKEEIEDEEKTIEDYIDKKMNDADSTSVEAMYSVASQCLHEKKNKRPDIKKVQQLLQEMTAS

The IC50 is the concentration needed to halve the response being measured. With `CC(C)Nc1c(C(=O)NCCC(C)(C)O)cnn2cc(-c3ccncc3F)nc12` [Example 109, 2-(3-fluoropyridin-4-yl)-N-(3-hydroxy-3-methylbutyl)-8-(isopropylamino)imidazo[1,2-b]pyridazine-7-carboxamide], the results for the IC50 in experiment [1], in experiment [2] and in experiment [3] were over 50 µM, 0.012 µM and over 20 µM, respectively. Further, the “Ratio of JAK3 IC50 to IRAK4 IC50” value in experiment [1] was over 4167.

As for `CC(C)Nc1c(C(=O)NC2CCN(S(C)(=O)=O)CC2)cnn2cc(-c3ccncc3F)nc12` [Example 111, 2-(3-fluoropyridin-4-yl)-8-(isopropylamino)-N-(1-(methylsulfonyl)piperidin-4-yl)imidazo[1,2-b]pyridazine-7-carboxamide], the IC50 in experiment [1] is over 50 µM; in experiment [2], 0.013 µM; in experiment [3], 3.73 µM. Further, the “Ratio of JAK3 IC50 to IRAK4 IC50” value in experiment [1] was over 3846.
